Patent US9353141B2, “Galectoside inhibitors of galectins” (GALECTO BIOTECH AB, priority 2012, dated 2016)
One block for each compound: values may come before it.

Tests used:
galectin-1 = galectin-1 (Homo sapiens, UniProt P09382); assay: Fluorescence polarization-based galectin inhibition assay; type: binding; details: 20° C., read-out: Calculated Kd Galectin 1
Text: (§1) Identification of the substances was made by HRMS (Micromass Q-tof micro) and NMR (Bruker Ultrashield 400 plus, 400 MHz). Chemical shifts are reported downfield from Me4Si using residual […] (7.26 ppm) or CHD2OD (3.35 ppm) as reference. Chemical shifts and coupling constants were obtained from ^1H-NMR and proton resonances were assigned from COSY experiments. Purification was made by RF-HPLC (Beckman, system gold) or flash chromatography, using silica gel (Davisil 35-70 μm, 60 Å). Reactions were followed by TLC (Aluminum sheet, silica gel 60 F254) visualized with UV light, H2SO4 (aq) or an iso-vanillin/H2SO4/EtOH development solution. THF and Et2O were dried over sodium/benzophenone and distilled. CH2Cl2 was dried by molecular sieves (4 Å, 1.6 mm). Other solvents and reagents were commercially available and used without further purifications. Fluorescence polarization experiments were performed on a PolarStar instrument (BMG, Offenburg; Germany). Evaluation of 20-34 as inhibitors of galectins was performed by use of fluorescence polarization as described in the literature (Sorme et al., 2003a, 2004). Galectin concentrations and fluorescent probe choice and concentrations were as described in Cumpstey et al. 2005a, except for galectin-3 for which the probe tdga-probe described in Salomonsson et al. 2010 was used at 20 nM together with galectin-3 at 200 nM concentrations. Each inhibitor was tested in duplicate at several concentrations between 4 and 0.25 μM. All fluorescence polarization experiments were conducted at 20° C., except galectin-7 for which experiments were conducted at 0° C.

[1] = molecular target: T1, galectin-8 (N-terminal domain) (Homo sapiens, UniProt O00214); assay: as above; type: binding; details: 20° C., read-out: Calculated Kd Galectin 8 (N-terminal domain)
T1 sequence (O00214 19-152 limits assumed): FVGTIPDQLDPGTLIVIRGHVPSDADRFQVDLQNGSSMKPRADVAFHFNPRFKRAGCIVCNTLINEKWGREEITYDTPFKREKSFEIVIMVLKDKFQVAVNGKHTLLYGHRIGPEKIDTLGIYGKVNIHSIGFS
Text: as §1

[2] = molecular target: galectin-9 (N-terminal domain) (Homo sapiens, UniProt O00182); assay: as above; type: binding; details: 20° C., read-out: Calculated Kd Galectin 9 (N-terminal domain)
Chain of galectin-9 (N-terminal domain) (O00182 17-148 limits assumed, species assumed): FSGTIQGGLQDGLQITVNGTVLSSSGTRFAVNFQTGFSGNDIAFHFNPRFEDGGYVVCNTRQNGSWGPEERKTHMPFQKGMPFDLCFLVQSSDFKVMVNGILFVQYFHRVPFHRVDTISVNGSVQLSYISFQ
Text: as §1

[3] = molecular target: T2, galectin-4 (C-terminal domain) (Homo sapiens, UniProt P56470); assay: as above; type: binding; details: 20° C., read-out: Calculated Kd Galectin 4 (C-terminal domain)
T2 sequence (P56470 194-323 limits assumed): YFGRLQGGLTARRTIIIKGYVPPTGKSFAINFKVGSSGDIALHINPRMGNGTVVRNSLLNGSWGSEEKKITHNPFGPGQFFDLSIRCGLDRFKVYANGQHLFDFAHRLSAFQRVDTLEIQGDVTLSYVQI
Text: as §1

galectin-3 = galectin-3 (Homo sapiens, UniProt P17931); assay: as above; type: binding; details: 20° C., tdga-probe 20 nM, galectin-3 200 nM, read-out: Calculated Kd Galectin 3
Chain of galectin-3 (P17931 whole entry, species assumed): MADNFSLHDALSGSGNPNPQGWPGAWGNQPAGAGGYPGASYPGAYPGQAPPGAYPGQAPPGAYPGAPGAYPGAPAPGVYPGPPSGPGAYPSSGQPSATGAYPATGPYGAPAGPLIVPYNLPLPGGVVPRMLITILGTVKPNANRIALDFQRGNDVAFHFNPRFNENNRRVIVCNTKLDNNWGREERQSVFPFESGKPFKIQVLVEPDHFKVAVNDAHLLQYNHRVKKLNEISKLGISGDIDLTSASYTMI
Text: as §1

[4] = molecular target: T3, galectin-4 (N-terminal domain) (Homo sapiens, UniProt P56470); assay: as above; type: binding; details: fluorescence polarization, 20° C.; read-out: Calculated Kd Galectin 4 (N-terminal domain)
T3 sequence (P56470 19-150 limits assumed): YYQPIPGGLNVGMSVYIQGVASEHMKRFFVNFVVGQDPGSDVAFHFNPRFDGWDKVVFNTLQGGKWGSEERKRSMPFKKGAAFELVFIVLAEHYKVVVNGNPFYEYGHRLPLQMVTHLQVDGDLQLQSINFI
Text: as §1

[5] = molecular target: galectin-9 (C-terminal domain) (Homo sapiens, UniProt O00182); assay: as above; type: binding; details: 20° C., read-out: Calculated Kd Galectin 9 (C-terminal domain)
Chain of galectin-9 (C-terminal domain) (O00182 227-355 limits assumed, species assumed): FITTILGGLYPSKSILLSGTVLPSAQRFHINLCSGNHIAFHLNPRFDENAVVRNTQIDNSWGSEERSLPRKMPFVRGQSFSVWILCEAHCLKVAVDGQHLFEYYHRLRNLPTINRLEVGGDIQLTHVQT
Text: as §1

galectin-7 = galectin-7 (Homo sapiens, UniProt P47929); assay: as above; type: binding; details: 0° C., read-out: Calculated Kd Galectin 7
Chain of galectin-7 (P47929 whole entry, species assumed): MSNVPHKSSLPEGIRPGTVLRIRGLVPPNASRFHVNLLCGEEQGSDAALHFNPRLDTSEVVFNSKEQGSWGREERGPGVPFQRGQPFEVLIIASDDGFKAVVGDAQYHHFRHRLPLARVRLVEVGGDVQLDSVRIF
Text: as §1

galectins = details: all galectins; cited from earlier work

Chain of galectin-1 (P09382 whole entry, species assumed): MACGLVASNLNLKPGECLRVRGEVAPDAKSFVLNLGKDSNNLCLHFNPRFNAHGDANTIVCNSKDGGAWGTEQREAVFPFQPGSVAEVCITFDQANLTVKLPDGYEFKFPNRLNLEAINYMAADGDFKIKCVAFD

Kd (galectin-1): 9.9 µM | Kd [1]: 85 µM | Kd [2]: 13 µM | Kd [3]: > 500 µM | Kd (galectin-3): 0.89 µM | Kd [4]: 130 µM | Kd [5]: ~4 µM | Kd (galectin-7): 37 µM
SMILES: COc1ccc2cc(CO[C@H]3[C@@H](O)[C@@H](CO)O[C@@H](S[C@@H]4O[C@H](CO)[C@H](O)[C@H](OCc5cc6ccc(OC)cc6oc5=O)[C@H]4O)[C@@H]3O)c(=O)oc2c1 [Compound 22, bis-{3-O-[(7-methoxy-2H-1-benzopyran-2-on-3-yl)-methyl]-β-D-galactopyranosyl}sulfane]

SMILES: O=C[C@H](O)[C@@H](O)[C@@H](O)[C@H](O)CO [D-galactose]
affinity compared with lactose (galectins): 50-100 times lower

SMILES: OC[C@H]1O[C@@H](O[C@H]2[C@H](O)[C@@H](O)C(O)O[C@@H]2CO)[C@H](O)[C@@H](O)[C@H]1O (stereo partly shown) [lactose]
Kd (galectins): 500 to 1000 µM
